Laboratory results: ChEMBL document CHEMBL3120047, “Ligand bioactive conformation plays a critical role in the design of drugs that target the hepatitis C virus NS3 protease” (J Med Chem, 2014)
Non-standard residues stand in square brackets, D forms with d. Residues, ends and D or L forms follow the SMILES beside them. *: point of attachment. Hyp = O=C(O)[C@@H]1C[C@@H](O)CN1; Nva = CCC[C@H](N)C(=O)O; Bn = c1ccc(C*)cc1

Test: Inhibition of HCV genotype 1b NS3/NS4A protease using DDIVPCSMSYTW as substrate by radiometric enzymatic assay
Parameters: species or system Hepatitis C virus subtype 1b
With `C=C[C@@H]1C[C@]1(NC(=O)[C@@H]1CCCN1C(=O)[C@@H](NC(=O)OC(C)(C)C)C(C)(C)C)C(=O)O` the Ki was over 600000 nM.
Work on `C=C[C@@H]1C[C@]1(NC(=O)[C@@H]1C[C@@H](Oc2ccccc2)CN1C(=O)[C@@H](NC(=O)OC(C)(C)C)C(C)(C)C)C(=O)O` yielded a Ki of 29000 nM.
`C=C[C@@H]1C[C@]1(NC(=O)[C@@H]1C[C@@H](Oc2ccnc3ccccc23)CN1C(=O)[C@@H](NC(=O)OC(C)(C)C)C(C)(C)C)C(=O)O` gave a Ki of 140 nM.
H-DDIVPC-OH gave an IC50 of 71000 nM and a Ki of 19000 nM.
In the case of `C=C[C@@H]1C[C@]1(NC(=O)[C@@H]1C[C@@H](Oc2cc(-c3ccccc3)nc3cc(OC)ccc23)CN1C(=O)[C@H](C)NC(=O)OC(C)(C)C)C(=O)O`, the Ki is reported as 310 nM.
In the case of `C=C[C@@H]1C[C@]1(NC(=O)[C@@H]1C[C@@H](Oc2cc(-c3ccccc3)nc3cc(OC)ccc23)CN1C(=O)CC(C)(C)C)C(=O)O`, the Ki is reported as 1600 nM.
With `COc1ccc2c(O[C@@H]3C[C@@H](C(=O)NCC(=O)O)N(C(=O)[C@@H](NC(=O)OC(C)(C)C)C(C)(C)C)C3)cc(-c3ccccc3)nc2c1` the Ki was 56000 nM.
For `CCC[C@H](NC(=O)[C@@H]1C[C@@H](OCc2ccccc2)CN1C(=O)[C@@H](NC(=O)[C@@H](NC(=O)[C@H](CC(=O)O)NC(=O)[C@H](CC(=O)O)NC(C)=O)[C@@H](C)CC)C(C)C)C(=O)O` (Ac-DDIV[Hyp](Bn)[Nva]-OH), the Ki was 1900 nM.
Work on `C=C[C@@H]1C[C@]1(NC(=O)[C@@H]1C[C@@H](Oc2cc(-c3ccccc3)nc3cc(OC)ccc23)CN1C(C)=O)C(=O)O` yielded a Ki of 28000 nM.
For `C=C[C@@H]1C[C@]1(NC(=O)[C@@H]1C[C@@H](Oc2cc(-c3ccccc3)nc3cc(OC)ccc23)CN1C(=O)CNC(=O)OC(C)(C)C)C(=O)O`, the Ki was 3000 nM.
For `C=C[C@@H]1C[C@]1(NC(=O)[C@@H]1C[C@@H](Oc2cc(-c3ccccc3)nc3cc(OC)ccc23)CN1C(=O)[C@@H](NC(=O)OC(C)(C)C)C(C)(C)C)C(=O)O`, the Ki was 20 nM.
`C=C[C@@H]1C[C@]1(NC(=O)[C@@H]1C[C@@H](Oc2cccc3ccccc23)CN1C(=O)[C@@H](NC(=O)OC(C)(C)C)C(C)(C)C)C(=O)O` showed a Ki of 310 nM.
`COc1ccc2c(O[C@@H]3C[C@@H](C(=O)NC4(C(=O)O)CC4)N(C(=O)[C@@H](NC(=O)OC(C)(C)C)C(C)(C)C)C3)cc(-c3ccccc3)nc2c1` showed a Ki of 350 nM.
`C=C[C@@H]1C[C@]1(NC(=O)[C@@H]1C[C@@H](Oc2ccncc2)CN1C(=O)[C@@H](NC(=O)OC(C)(C)C)C(C)(C)C)C(=O)O` gave a Ki of 29000 nM.
